Source: patent US10806744B2, “Edible composition” (Conopco, Inc., priority 2015, dated 2020)
Values joined by “and” are separate entries in the source; they are usually repeats but may differ in a detail not shown here. Identical values can stand only once.

Columns and labels:
GLUT2 = target: T1, GLUT2 (Homo sapiens, UniProt P11168); assay: Glucose transport inhibitor cell screening assay, 25 mM D-glucose for 30 minutes; details: for inhibition at 300 µM: Caco-2, read-out: % Glucose transport inhibiton 25 mM
T1 sequence (P11168 1-524): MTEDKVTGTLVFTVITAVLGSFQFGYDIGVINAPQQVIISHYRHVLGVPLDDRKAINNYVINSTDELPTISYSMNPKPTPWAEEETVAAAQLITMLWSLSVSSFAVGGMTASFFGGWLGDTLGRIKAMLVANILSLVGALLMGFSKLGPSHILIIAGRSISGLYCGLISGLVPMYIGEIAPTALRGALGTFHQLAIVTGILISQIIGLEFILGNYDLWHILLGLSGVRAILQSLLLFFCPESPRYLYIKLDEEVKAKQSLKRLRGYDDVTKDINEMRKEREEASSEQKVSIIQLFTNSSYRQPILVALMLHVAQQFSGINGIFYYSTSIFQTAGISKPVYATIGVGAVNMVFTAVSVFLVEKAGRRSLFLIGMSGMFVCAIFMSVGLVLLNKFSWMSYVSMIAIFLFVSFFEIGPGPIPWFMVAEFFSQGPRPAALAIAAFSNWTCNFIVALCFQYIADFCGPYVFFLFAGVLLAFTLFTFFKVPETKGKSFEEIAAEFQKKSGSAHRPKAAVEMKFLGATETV
Method: (§1) Human epithelial colorectal adenocarcinoma (Caco-2) cells were obtained from the American Type Culture Collection (ATCC) and cultured in Growth Medium consisting of Dulbecco's modified Eagle's medium (containing Glutamax-1, 4.5 g/L D-glucose and 25 mM 4-(2-hydroxyethyl)-1-piperazine ethanesulphonic acid (Hepes) (Invitrogen)), 10% foetal bovine serum (Sigma), 1% non-essential amino acids (Invitrogen) and 1 mM sodium pyruvate (Sigma)). The cells were routinely passaged at approximately 80% confluence using TrypLE™ Express Stable Trypsin-Like Enzyme (Invitrogen) to detach the cells, and seeded at approximately 114 cells per mm^2 in fresh tissue culture flasks. Only cells between the passage numbers 45 and 49 were used for experiments.
(§2) Corning® HTS Transwell® 96 well permeable insert supports (Sigma) were collagen coated with 40 μl of 50 μg/ml rat tail collagen type I (BD Biosciences) in 0.02 M acetic acid for one hour at room temperature under sterile conditions. The inserts were washed twice in phosphate buffered saline (PBS (Invitrogen)) and the Caco-2 cells seeded into the inserts at 1.0×10^6 cell/ml (75 μl per insert) in Growth Medium and 30 ml of Growth Medium added to the feeder plate below. The cells were left to attach to the collagen matrix and form monolayers over 48 hours at 37° C., 5% CO2. Both inserts and feeder plate were washed in PBS and the cells incubated with BD Entero-STIM™ Enterocyte Differentiation Medium containing MITO+™ Serum Extender solution (both BD Biosciences), 75 μl per insert and 30 ml in the feeder plate, for a further 48 hours at 37° C., 5% CO2.
(§3) Differentiated cell monolayers were washed gently in Dulbecco's Phosphate Buffered Saline containing CaCl2 and MgCl2 (PBS(+) (Invitrogen)) and the inserts transferred to a new Corning® HTS Transwell®-96 well receiver plate (Sigma). The cells were incubated with fresh PBS(+) (75 μl per insert and 225 μl per well) for 60 minutes at 37° C., 5% CO2. The PBS(+) was gently aspirated and replaced with 75 μl per insert of either 5 mM D-glucose (Sigma)±test compound or 25 mM D-glucose±test compound in triplicate and 225 μl per well of PBS(+) quickly added to each well. The 5 mM glucose wells and the 25 mM glucose wells were incubated at 37° C., 5% CO2 for 15 minutes and 30 minutes, respectively. […] The cell inserts were transferred to a new receiver plate, the supernatant gently aspirated from the cells and replaced with 100 μl of 100 μM of Lucifer Yellow (Sigma) solution to confirm the integrity of the monolayers. 225 μl of PBS(+) was added to each well and incubated at 37° C., 5% CO2 for 1 hour. The cell inserts were then discarded and the permeability of the membranes to Lucifer Yellow checked by measuring the fluorescence of the samples at 485 nm (excitation) and 530 nm (emission) on a Spectramax Gemini EM fluorescence microplate reader.
(§4) The amount of glucose transported across the cell monolayers was measured using a glucose assay based on Invitrogen's Amplex Red Glucose/Glucose oxidase Assay Kit. Briefly, 50 μl of each test sample was transferred to a black sided/clear bottom 96-well plate (Greiner Bio-One) to which 100 μl of reaction buffer (0.5 μl 10 mM Ampliflu Red, 1 μl 10 U/ml Horse Radish peroxidase, 1 μl 100 U/ml glucose oxidase and 97.5 μl PBS (all Sigma)) was added. After 10 minutes incubation at room temperature, the fluorescence of the samples was measured at 530 nm (excitation) and 590 nm (emission) on a Spectramax Gemini EM fluorescence microplate reader and the glucose concentration extrapolated from a standard curve.
(§5) At higher D-glucose concentrations, the SGLT1 transporter becomes saturated and consequently the majority of glucose transport across the monolayer is driven by the low affinity, high capacity GLUT2 transporter that is targeted to the apical membrane only following an initial SGLT1-dependent transport of glucose.

[1] = test system: glucose transport across differentiated Caco-2 cell monolayers; assay: Glucose transport cell model: 5 mM D-glucose 15 minutes, then 25 mM for 45 minutes, cumulative glucose transport; format: cell-based, human; set-up: unit not given here; details: duplicate
Method: Caco-2 cells were cultured and routinely passaged as described in Example 1.
After the last incubation, all of the retained PBS(+) from each step (i.e. at 15, 30, 45 and 60 minutes) was assayed for glucose levels as described in Example 1, and the total cumulative glucose transport calculated. The localised changes in luminal glucose concentrations described and illustrated in example 1 are mimicked in-vitro through an initial short incubation of differentiated Caco-2 cells with a low level of D-glucose (5 mM for 15 minutes) immediately followed by a sustained incubation with a high level of D-glucose (final concentration of 25 mM for 45 minutes).
In the above table, every test pairing of a homisoflavonoid (HIF) and a flavonoid monoglucoside (FM) has 5 values reported: • 1. No Compound (NC)+NC • 2.
Synergy is achieved when the inhibition caused by the combination of HIF and FM is greater than the sum of the inhibition due to HIF alone added to the inhibition due to FM alone.

SGLT1 and GLUT2 = assay: Assigned class of transporter inhibited, from Caco-2 screening at 5 mM and 25 mM D-glucose; format: cell-based, human; details: from % inhibition at 5 mM and 25 mM D-glucose; compound 300 μM
SGLT1 = target: T2, SGLT1 (Homo sapiens, UniProt P13866); assay: Glucose transport inhibitor cell screening assay, 5 mM D-glucose for 15 minutes; details: for identified as inhibitors of SGLT1: Caco-2 cell assay; for inhibition at 300 µM: Caco-2, read-out: % Glucose transport inhibiton 5 mM
T2 sequence (P13866 1-664): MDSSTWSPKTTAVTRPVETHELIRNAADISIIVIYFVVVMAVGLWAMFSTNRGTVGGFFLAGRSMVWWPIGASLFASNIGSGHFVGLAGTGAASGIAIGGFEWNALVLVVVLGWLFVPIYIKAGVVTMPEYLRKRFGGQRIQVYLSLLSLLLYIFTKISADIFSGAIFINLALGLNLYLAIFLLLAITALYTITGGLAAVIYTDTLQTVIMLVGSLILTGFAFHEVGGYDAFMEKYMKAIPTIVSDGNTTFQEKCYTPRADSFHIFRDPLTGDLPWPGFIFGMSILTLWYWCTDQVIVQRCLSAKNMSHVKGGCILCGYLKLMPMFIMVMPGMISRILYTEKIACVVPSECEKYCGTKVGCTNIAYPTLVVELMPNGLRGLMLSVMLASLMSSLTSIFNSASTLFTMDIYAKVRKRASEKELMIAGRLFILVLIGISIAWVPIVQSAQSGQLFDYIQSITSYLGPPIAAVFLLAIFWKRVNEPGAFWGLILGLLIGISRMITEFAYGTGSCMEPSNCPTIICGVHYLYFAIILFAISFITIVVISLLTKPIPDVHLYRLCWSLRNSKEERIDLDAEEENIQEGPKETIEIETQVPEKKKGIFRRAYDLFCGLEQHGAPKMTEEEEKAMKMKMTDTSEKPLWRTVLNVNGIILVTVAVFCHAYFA
Method: as §1, §2, §3, §4, §5

inhibition at 300 µM (GLUT2) [%]	identified as inhibitors of GLUT2 (GLUT2; Caco-2 cell assay)	inhibition at 300 µM (SGLT1) [%]	Structure (SMILES)	% Glucose transport inhibiton 25 mM (GLUT2; compound 300 μM in DMSO, 25 mM D-glucose, 30 minutes, Caco-2 monolayer, triplicate) [%]	Cumulative (AVE) glucose transport ([1]; flavonoid monoglucoside 300 uM alone, added at 5 mM glucose step only (NC at 25 mM))	Cumulative (AVE) glucose transport ([1]; flavonoid monoglucoside 300 uM alone, added at 25 mM glucose step only (NC at 5 mM))	Class (assigned class of transporter inhibited) (SGLT1 and GLUT2)	identified as inhibitors of SGLT1 (SGLT1)	% Glucose transport inhibiton 5 mM (SGLT1; compound 300 μM in DMSO, 5 mM D-glucose, 15 minutes, Caco-2 monolayer, triplicate) [%]	Cumulative (AVE) glucose transport ([1]; homoisoflavonoid 10 uM alone, added at 25 mM glucose step (NC at 5 mM))	Cumulative (AVE) glucose transport ([1]; flavonoid monoglucoside 300 uM alone, added at 5 mM glucose step only (NC at 25 mM), listed as T)	Cumulative (AVE) glucose transport ([1]; flavonoid monoglucoside 300 uM alone, added at 25 mM glucose step only (NC at 5 mM), listed as T)
			OC[C@H]1O[C@@H](Oc2cc3c(O)cc(O)cc3[o+]c2-c2cc(O)c(O)c(O)c2)[C@H](O)[C@@H](O)[C@@H]1O.[Cl-] [Delphinidin-3-O-glucoside chloride, delphinidin-3-O-glucoside chloride]	12.82 ± 1.19	220.62	227.60	SGLT1	inhibitors of SGLT1	41.00 ± 3.60			
63 ± 2.94	inhibitors of GLUT2	89.9 ± 0.06	COc1c(O)c(C)c(O)c2c1OCC(Cc1ccc(O)cc1)C2=O (centres unmarked) [EA2, 5,7-dihydroxy-3-(4′-hydroxybenzyl)-6-methyl-8-methoxychroman-4-one]				GLUT2 (GLUT2 inhibitors having ≥20% inhibition at both 5 mM and 25 mM D-glucose levels)			283.98		
4.92 ± 2.08		29.4 ± 0.62	COc1c(O[C@@H]2O[C@H](CO)[C@@H](O)[C@H](O)[C@H]2O)cc2occ(-c3ccc(O)cc3)c(=O)c2c1O [Tectoridin]				SGLT1	inhibitors of SGLT1			346.92 and 321.4 and 298.40	395.85 and 304.5 and 298.98
